Data taken from PMC9964268, “A Novel, Highly Potent NADPH-Dependent Cytochrome P450 Reductase from Waste Liza klunzingeri Liver” (Marine Drugs, 2023).

System: T1, LkCPR; NADPH-dependent cytochrome P450 reductase from Liza klunzingeri liver
T1 construct: gene POR; native, purified from liver microsomes (detergent-solubilised; DEAE-Sepharose twice, 2',5'-ADP Sepharose 4B); about 75 kDa, monomer
Test: cytochrome c reduction at […] nm, Michaelis-Menten fit
Format: biochemical, Planiliza klunzingeri
Details: co-substrate cytochrome c at saturation (50 µM); potassium phosphate pH 7.5; room temperature; apparent Km

With `NC(=O)C1=CN([C@@H]2O[C@H](COP(=O)(O)OP(=O)(O)OC[C@H]3O[C@@H](n4cnc5c(N)ncnc54)[C@H](OP(=O)(O)O)[C@@H]3O)[C@@H](O)[C@H]2O)C=CC1` [NADPH] the Km was 7.26 ± 0.2 µM.
